Results: patent US11572362B2, “Pyrrolo[1,2-b]pyridazine derivatives” (Gilead Sciences, Inc., priority 2018, dated 2023)

Experiments:
IRAK4 = IRAK4 (Homo sapiens (Human), UniProt Q9NWZ3); test: IRAK4 Biochemical Assay (TR-FRET/HTRF); conditions: IRAK4 enzyme 0.75 nM, 500 μM ATP, 2 μM STK1 peptide, 120 min
In short: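 Recombinant IRAK4 (0.75 nM) with 2 µM STK1 peptide and 500 µM ATP in pH 7.0 HEPES/Mg buffer; compound preincubated 15 min with enzyme and peptide, then 120 min reaction at room temperature. HTRF readout: cryptate anti-phospho-peptide antibody, 665/615 nm ratio; % inhibition against no-inhibitor and saturating-staurosporine controls.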

TNFα = test: IRAK4 Monocyte TNFα Cell Based Assay; conditions: Monocyte; cryopreserved human monocytes, 50 pg/ml LPS, compound 1 hour pre-treatment, 4 hours stimulation, TNFα by TR-FRET
In short: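 Monocytes at 5,000 cells/well were pre-treated with compound for 1 h at 37 °C (0.1% DMSO final), then stimulated with 50 pg/ml LPS for 4 h. Secreted TNFα in supernatant was measured by TR-FRET (665/615 ratio), expressed as % control relative to unstimulated and stimulated cells.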

IRAK4, sequence (Q9NWZ3 whole entry): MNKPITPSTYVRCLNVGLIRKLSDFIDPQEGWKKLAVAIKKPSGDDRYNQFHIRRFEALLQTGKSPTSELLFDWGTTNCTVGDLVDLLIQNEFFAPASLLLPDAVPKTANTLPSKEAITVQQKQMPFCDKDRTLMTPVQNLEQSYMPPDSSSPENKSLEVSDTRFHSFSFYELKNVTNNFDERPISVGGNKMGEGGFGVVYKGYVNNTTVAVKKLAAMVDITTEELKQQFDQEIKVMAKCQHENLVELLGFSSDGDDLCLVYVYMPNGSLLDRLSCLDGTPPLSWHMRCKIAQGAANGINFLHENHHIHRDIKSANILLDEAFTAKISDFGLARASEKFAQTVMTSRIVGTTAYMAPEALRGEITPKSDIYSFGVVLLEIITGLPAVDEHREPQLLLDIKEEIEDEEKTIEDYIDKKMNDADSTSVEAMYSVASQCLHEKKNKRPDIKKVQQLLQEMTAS

Row | SMILES | IC50 (IRAK4) [nM] | EC50 (TNFα) [nM]
1 | CC(C)(O)[C@H](F)CNC(=O)c1cnc(-c2ccc3cc(C#N)cnn23)cc1NC1CCC(c2ncn(C(F)F)n2)CC1 (stereo partly drawn) [Compound 21, (R)-6-(3-cyanopyrrolo[1,2-b]pyridazin-7-yl)-4-((4-(1-(difluoromethyl)-1H-1,2,4-triazol-3-yl)cyclohexyl)amino)-N-(2-fluoro-3-hydroxy-3-methylbutyl)nicotinamide] | 2 | 60
2 | CC(C)(O)[C@H](F)CNC(=O)c1cnc(-c2ccc3cc(C#N)cnn23)cc1N[C@H]1CC[C@H](c2nnc(C(F)F)o2)OC1 [Compound 74, 6-(3-cyanopyrrolo[1,2-b]pyridazin-7-yl)-4-(((3S,6R)-6-(5-(difluoromethyl)-1,3,4-oxadiazol-2-yl)tetrahydro-2H-pyran-3-yl)amino)-N-((R)-2-fluoro-3-hydroxy-3-methylbutyl)nicotinamide] | 0.868 | 71.4
3 | CC(C)(O)[C@H](F)CNC(=O)c1cnc(-c2ccc3cc(C#N)cnn23)cc1N[C@H]1CC[C@H](c2ccn(C(F)F)n2)CC1 [Compound 8, 6-(3-cyanopyrrolo[1,2-b]pyridazin-7-yl)-4-(((1r,4R)-4-(1-(difluoromethyl)-1H-pyrazol-3-yl)cyclohexyl)amino)-N-((R)-2-fluoro-3-hydroxy-3-methylbutyl)nicotinamide] | 1 | 36
4 | CC(C)(O)[C@H](F)CNC(=O)c1cnc(-c2ccc3cc(C#N)cnn23)cc1N[C@H]1CC[C@H](c2nnc(C(F)F)o2)CC1 [Compound 42, 6-(3-cyanopyrrolo[1,2-b]pyridazin-7-yl)-4-(((1r,4R)-4-(5-(difluoromethyl)-1,3,4-oxadiazol-2-yl)cyclohexyl)amino)-N-((R)-2-fluoro-3-hydroxy-3-methylbutyl)nicotinamide] | < 1 | 24
5 | CC(C)(O)[C@H](F)CNC(=O)c1cnc(-c2ccc3cc(C#N)cnn23)cc1N[C@H]1CC[C@H](n2cc(CC#N)cn2)CC1 [Compound 27, 4-(((1r,4R)-4-(4-(cyanomethyl)-1H-pyrazol-1-yl)cyclohexyl)amino)-6-(3-cyanopyrrolo[1,2-b]pyridazin-7-yl)-N-((R)-2-fluoro-3-hydroxy-3-methylbutyl)nicotinamide] | < 1 | 58
6 | Cc1nnc([C@H]2CC[C@H](Nc3cc(-c4ccc5cc(C#N)cnn45)ncc3C(=O)NC[C@@H](F)C(C)(C)O)CC2)s1 [Compound 52, 6-(3-cyanopyrrolo[1,2-b]pyridazin-7-yl)-N-((R)-2-fluoro-3-hydroxy-3-methylbutyl)-4-(((1r,4R)-4-(5-methyl-1,3,4-thiadiazol-2-yl)cyclohexyl)amino)nicotinamide] | 1 | 50
7 | Cn1nnnc1[C@H]1CC[C@H](Nc2cc(-c3ccc4cc(C#N)cnn34)ncc2C(=O)NC[C@@H](F)C(C)(C)O)CC1 [Compound 16, 6-(3-cyanopyrrolo[1,2-b]pyridazin-7-yl)-N-((R)-2-fluoro-3-hydroxy-3-methylbutyl)-4-(((1r,4R)-4-(1-methyl-1H-tetrazol-5-yl)cyclohexyl)amino)nicotinamide] | < 1 | 26
8 | CC(C)(O)[C@H](F)CNC(=O)c1cnc(-c2ccc3cc(C#N)cnn23)cc1NC12CCC(c3nncs3)(CC1)CC2 [Compound 61, (R)-4-((4-(1,3,4-thiadiazol-2-yl)bicyclo[2.2.2]octan-1-yl)amino)-6-(3-cyanopyrrolo[1,2-b]pyridazin-7-yl)-N-(2-fluoro-3-hydroxy-3-methylbutyl)nicotinamide] | < 1 | 4
9 | CC(C)(O)[C@H](F)CNC(=O)c1cnc(-c2ccc3cc(C#N)cnn23)cc1NC12CCC(c3nnc(C(F)F)o3)(CC1)CC2 [Compound 62, (R)-6-(3-cyanopyrrolo[1,2-b]pyridazin-7-yl)-4-((4-(5-(difluoromethyl)-1,3,4-oxadiazol-2-yl)bicyclo[2.2.2]octan-1-yl)amino)-N-(2-fluoro-3-hydroxy-3-methylbutyl)nicotinamide] | < 1 | 19
